According to ChEMBL document CHEMBL1125402, “Conformational effects on the activity of drugs. 13. A revision of previously proposed models for the activation of alpha- and beta-adrenergic receptors” (J Med Chem, 1992):

Key:
[1] = biological target: T1, Adrenergic receptor alpha-1 (Rattus norvegicus, UniProt P15823+P23944+P43140); assay: Binding affinity towards Alpha-1 adrenergic receptor of rat brain
T1 sequence (P15823 whole entry): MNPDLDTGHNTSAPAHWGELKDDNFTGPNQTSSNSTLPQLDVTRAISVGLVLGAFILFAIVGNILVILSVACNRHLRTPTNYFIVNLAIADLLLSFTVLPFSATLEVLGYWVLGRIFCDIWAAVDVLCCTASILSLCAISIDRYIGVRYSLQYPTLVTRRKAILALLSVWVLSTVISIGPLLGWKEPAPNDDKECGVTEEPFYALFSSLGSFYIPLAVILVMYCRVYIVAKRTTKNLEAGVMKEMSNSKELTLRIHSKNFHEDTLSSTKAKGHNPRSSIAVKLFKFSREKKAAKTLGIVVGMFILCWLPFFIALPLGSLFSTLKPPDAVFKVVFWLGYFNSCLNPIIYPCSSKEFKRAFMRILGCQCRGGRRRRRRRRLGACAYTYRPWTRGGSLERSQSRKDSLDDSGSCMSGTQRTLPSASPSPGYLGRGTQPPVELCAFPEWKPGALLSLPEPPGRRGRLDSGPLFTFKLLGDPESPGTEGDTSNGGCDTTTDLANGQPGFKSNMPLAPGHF
T1 sequence (P23944 whole entry): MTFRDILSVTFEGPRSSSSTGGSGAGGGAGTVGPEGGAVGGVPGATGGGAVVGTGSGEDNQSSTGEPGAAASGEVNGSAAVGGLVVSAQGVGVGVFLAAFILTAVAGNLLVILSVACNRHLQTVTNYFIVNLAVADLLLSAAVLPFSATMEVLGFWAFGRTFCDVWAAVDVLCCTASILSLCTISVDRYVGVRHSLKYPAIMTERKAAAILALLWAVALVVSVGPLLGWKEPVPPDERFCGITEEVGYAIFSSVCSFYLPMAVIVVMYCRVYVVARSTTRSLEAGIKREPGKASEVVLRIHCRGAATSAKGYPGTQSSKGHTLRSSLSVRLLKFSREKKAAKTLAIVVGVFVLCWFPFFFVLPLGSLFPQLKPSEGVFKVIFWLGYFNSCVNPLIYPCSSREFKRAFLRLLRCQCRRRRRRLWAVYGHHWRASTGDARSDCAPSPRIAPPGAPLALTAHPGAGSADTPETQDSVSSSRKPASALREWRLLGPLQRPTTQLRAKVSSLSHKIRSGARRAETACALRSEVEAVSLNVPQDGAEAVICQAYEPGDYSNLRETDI
T1 sequence (P43140 whole entry): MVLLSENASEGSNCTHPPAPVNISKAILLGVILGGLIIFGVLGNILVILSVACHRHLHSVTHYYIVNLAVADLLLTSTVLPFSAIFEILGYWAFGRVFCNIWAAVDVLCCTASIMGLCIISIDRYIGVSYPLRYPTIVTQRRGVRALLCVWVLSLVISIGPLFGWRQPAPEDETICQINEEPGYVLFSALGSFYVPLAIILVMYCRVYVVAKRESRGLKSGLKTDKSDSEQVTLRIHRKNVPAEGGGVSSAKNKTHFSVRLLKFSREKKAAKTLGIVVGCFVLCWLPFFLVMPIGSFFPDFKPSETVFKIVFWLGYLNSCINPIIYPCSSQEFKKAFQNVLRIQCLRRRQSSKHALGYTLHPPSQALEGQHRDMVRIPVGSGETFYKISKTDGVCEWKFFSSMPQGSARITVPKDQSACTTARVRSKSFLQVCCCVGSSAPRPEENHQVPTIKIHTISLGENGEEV

[2] = biological target: Beta-2 adrenergic receptor (Bos taurus, UniProt Q28044); assay: Compound was evaluated for beta adrenergic binding affinity towards Beta-2 adrenergic receptor of bovine lung
Sequence of Beta-2 adrenergic receptor (Q28044 whole entry): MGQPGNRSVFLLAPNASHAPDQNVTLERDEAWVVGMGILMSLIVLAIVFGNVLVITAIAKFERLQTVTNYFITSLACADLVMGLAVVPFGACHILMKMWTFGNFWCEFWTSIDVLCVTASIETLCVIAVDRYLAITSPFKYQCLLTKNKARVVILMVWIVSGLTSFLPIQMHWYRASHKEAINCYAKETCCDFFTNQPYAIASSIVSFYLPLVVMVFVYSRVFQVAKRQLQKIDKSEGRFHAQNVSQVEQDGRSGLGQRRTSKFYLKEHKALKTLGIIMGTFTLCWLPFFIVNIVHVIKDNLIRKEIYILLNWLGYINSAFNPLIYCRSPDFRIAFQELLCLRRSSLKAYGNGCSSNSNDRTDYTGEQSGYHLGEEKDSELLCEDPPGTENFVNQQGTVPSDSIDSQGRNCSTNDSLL

[3] = biological target: T2, Adrenergic receptor alpha-2 (Homo sapiens) (UniProt P08913+P18825+P18089); assay: Intrinsic activity was expressed as the ratio between maximal response elicited by compound and that elicited by full agonist NE towards alpha-2 adrenergic receptor of isolated guinea pig ileum; format: functional, tissue-based; details: Cavia porcellus
[4] = biological target: Beta-1 adrenergic receptor (Cavia porcellus) (UniProt B0FL73)
Sequence of Beta-1 adrenergic receptor (Cavia porcellus) (B0FL73 1-467): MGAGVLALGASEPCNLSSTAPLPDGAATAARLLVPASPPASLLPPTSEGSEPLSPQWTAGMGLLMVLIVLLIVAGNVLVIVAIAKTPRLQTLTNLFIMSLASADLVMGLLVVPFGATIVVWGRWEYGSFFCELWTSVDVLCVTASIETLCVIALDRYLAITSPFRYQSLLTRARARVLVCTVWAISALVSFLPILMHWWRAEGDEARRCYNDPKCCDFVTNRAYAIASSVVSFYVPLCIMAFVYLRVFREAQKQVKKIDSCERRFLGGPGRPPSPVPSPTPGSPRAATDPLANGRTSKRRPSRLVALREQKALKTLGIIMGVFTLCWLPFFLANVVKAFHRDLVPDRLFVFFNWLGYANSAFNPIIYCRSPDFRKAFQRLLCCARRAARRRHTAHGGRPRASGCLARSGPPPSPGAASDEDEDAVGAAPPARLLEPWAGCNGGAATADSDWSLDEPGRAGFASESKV
Description: Compound was evaluated for beta adrenoceptor agonistic activity towards Beta-1 adrenergic receptor of isolated guinea pig atria (exp 2)

[5] = biological target: Beta-2 adrenergic receptor (Cavia porcellus) (UniProt Q8K4Z4)
Sequence of Beta-2 adrenergic receptor (Cavia porcellus) (Q8K4Z4 whole entry, looked up): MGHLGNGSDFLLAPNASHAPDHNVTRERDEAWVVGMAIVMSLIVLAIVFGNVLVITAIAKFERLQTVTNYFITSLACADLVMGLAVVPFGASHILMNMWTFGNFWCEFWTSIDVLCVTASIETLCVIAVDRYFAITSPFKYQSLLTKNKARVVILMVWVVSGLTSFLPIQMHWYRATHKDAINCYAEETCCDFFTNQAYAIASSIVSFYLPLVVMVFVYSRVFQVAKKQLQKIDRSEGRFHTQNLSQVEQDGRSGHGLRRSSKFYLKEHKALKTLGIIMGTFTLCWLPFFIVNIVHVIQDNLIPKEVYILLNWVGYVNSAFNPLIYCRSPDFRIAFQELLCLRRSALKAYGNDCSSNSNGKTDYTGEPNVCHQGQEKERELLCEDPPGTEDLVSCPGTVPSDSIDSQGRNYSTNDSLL
Description: Compound was evaluated for beta adrenoceptor agonistic activity towards Beta-2 adrenergic receptor of isolated guinea pig tracheal strip (exp 1)

[6] = biological target: Beta-2 adrenergic receptor (Cavia porcellus) (UniProt Q8K4Z4); remark: listed apart in the source
Description: Compound was evaluated for beta adrenoceptor agonistic activity towards Beta-2 adrenergic receptor of isolated guinea pig tracheal strip (exp 2)

[7] = biological target: Beta-1 adrenergic receptor (Cavia porcellus) (UniProt B0FL73); assay: Compound was evaluated for beta adrenoceptor agonistic activity towards Beta-1 adrenergic receptor of isolated guinea pig atria (exp 1); format: functional
[8] = biological target: Beta-1 adrenergic receptor (Rattus norvegicus, UniProt P18090)
Sequence of Beta-1 adrenergic receptor (P18090 whole entry): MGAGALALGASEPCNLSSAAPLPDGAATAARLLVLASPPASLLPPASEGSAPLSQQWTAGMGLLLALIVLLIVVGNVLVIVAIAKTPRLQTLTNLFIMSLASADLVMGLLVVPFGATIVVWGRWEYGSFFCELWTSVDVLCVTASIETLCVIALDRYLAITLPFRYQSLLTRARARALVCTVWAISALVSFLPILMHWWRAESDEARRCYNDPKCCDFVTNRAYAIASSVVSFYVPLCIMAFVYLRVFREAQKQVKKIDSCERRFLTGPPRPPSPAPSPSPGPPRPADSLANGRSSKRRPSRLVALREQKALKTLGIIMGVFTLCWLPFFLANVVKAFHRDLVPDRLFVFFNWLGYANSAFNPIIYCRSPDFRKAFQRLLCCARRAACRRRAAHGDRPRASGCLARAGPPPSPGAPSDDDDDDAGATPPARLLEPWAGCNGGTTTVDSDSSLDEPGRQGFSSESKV
Description: Compound was evaluated for beta adrenergic binding affinity towards Beta-1 adrenergic receptor of rat brain

[9] = biological target: T3, Adrenergic receptor alpha-2 (Rattus norvegicus, UniProt P22086+P19328+P22909); assay: Binding affinity towards alpha-2 adrenergic receptor of rat brain
T3 sequence (P22086 whole entry): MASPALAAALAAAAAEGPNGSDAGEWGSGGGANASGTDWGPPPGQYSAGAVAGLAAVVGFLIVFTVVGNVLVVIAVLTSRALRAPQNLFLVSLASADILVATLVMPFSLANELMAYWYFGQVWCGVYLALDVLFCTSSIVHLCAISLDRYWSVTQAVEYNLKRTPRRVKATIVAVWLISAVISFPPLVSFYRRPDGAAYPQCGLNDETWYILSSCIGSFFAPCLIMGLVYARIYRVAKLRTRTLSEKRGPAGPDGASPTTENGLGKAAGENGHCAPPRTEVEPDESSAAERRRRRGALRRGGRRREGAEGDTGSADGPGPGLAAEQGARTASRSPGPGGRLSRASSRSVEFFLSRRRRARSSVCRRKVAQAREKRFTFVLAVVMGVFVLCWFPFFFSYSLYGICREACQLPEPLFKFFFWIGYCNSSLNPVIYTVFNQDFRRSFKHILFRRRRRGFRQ
T3 sequence (P19328 whole entry): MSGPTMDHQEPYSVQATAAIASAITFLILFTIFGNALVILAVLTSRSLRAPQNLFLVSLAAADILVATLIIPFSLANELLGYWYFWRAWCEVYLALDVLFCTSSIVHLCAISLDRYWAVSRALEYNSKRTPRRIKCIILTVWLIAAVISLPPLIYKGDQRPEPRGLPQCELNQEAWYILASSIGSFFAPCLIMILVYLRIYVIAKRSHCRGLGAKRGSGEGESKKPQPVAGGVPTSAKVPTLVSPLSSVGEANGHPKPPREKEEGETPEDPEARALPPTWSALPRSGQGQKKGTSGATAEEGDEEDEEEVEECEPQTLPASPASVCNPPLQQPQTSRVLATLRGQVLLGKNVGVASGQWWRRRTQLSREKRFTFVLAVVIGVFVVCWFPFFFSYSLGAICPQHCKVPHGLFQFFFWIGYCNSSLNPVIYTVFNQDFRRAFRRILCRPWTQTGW
T3 sequence (P22909 whole entry): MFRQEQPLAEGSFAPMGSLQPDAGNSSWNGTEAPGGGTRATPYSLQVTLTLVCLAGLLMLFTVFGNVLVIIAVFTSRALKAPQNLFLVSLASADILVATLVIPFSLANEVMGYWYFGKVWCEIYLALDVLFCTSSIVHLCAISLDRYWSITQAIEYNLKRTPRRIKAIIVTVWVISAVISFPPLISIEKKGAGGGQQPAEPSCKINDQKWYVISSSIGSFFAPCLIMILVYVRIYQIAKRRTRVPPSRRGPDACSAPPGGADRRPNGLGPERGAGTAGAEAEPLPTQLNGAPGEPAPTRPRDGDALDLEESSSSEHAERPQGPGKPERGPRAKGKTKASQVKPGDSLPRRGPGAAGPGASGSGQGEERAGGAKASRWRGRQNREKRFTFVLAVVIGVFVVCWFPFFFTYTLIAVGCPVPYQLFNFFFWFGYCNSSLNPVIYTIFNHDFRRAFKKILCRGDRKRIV

[10] = biological target: Beta-1 adrenergic receptor (Cavia porcellus) (UniProt B0FL73); assay: Intrinsic activity was expressed as the ratio between maximal response elicited by compound and that elicited by full agonist ISO towards beta 1 receptor of isolated guinea pig atria; format: functional
[11] = Compound was evaluated for Alpha-1 adrenergic receptor agonistic activity towards alpha 1 receptor of isolated rabbit aortic strips; format: functional, Oryctolagus cuniculus
[12] = biological target: T2, Adrenergic receptor alpha-2 (Homo sapiens); assay: Compound was evaluated for alpha adrenoceptor agonistic activity towards alpha-2 adrenergic receptor of isolated guinea pig ileum; format: functional, tissue-based; details: Cavia porcellus, target entry is the homologue from another species

## CC(C)N[C@@H]1CCc2c(ccc(O)c2O)[C@H]1O
[1]
  Ki: > 100000 nM
[2]
  Ki: 62 nM
[3]
  Intrinsic activity: 0.72
[4]
  pD2: 7.56
[5]
  pD2: 8.06
[6]
  pD2: 8.41
[7]
  pD2: 6.72
[8]
  Ki: 760 nM
[9]
  Ki: 5800 nM
[10]
  Intrinsic activity: 1
[11]
  pD2: <3.5
[12]
  pD2: 5.6
